Patent publication US20230116972A1, “CD38 MODULATORS AND METHODS OF USE THEREOF” (Cytokinetics, Inc., priority 2021, published 2023)
pIC50: −log10 of the molar value.

Assays:
human CD38 = target: T1, human CD38 (Homo sapiens, UniProt P28907); assay: human recombinant CD38 enzyme assay (hydrolysis of NAD+); type: biochemical; conditions: human recombinant CD38, 0.4 nM enzyme, 62.5 μM NAD+; read-out: hCD38 BioChem IC50
T1 sequence (P28907 1-300): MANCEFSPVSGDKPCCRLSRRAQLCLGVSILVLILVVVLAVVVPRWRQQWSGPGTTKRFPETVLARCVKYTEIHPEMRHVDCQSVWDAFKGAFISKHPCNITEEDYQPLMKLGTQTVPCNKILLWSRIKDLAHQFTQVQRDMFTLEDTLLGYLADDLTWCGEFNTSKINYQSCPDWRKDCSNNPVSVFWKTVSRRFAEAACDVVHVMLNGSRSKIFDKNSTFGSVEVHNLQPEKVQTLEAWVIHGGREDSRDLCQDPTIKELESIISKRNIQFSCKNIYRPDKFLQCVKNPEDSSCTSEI
Procedure, shortened: (§1)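 Recombinant human or mouse CD38 hydrolyzing NAD+ in a cell-free buffered system. Dose-responses were run for 60 min at ambient temperature. Remaining NAD+ was converted to NADH by alcohol dehydrogenase, which drove diaphorase reduction of resazurin to resorufin, read at 540/590 nm.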

[1] = target: T2, endogenous CD38 in HL60 cells (Homo sapiens, UniProt P28907); assay: cellular CD38 assay in HL60 cells (cellular NAD levels); type: cell-based; conditions: all-trans retinoic acid, 24 hours, read-out: hCD38 HL60 ATRA NAD Cell Diaphorase IC50
T2 construct: endogenous in cells; host or cells: HL60 (leukemic cells, treated with all-trans retinoic acid)
T2 sequence (P28907 1-300): T1 sequence (P28907 1-300)
Experimental: The compounds described herein were also assayed for their ability to inhibit the endogenous CD38 in a native cellular environment in the cellular CD38 assay, which measures the ability of the compound to modulate cellular NAD levels. […] The assays were initiated by plating 20 μL of HL60 cells in culture medium, at a density of 20000 cells per well to a 384-well Corning™ Multiwell Plates. Compounds in DMSO were added to the plates in a volume of 120 nL using the Labcyte Echo Liquid Handlers. […] The plates are then incubated for 24 hours. 50 μL of a readout-solution containing 0.2 U/mL Diaphorase enzyme, 40 uM resazurin, 10 uM FMN, 0.8 U/mL Alcohol dehydrogenase, 3% ethanol, 0.4 mg/mL bovine serum albumin, 0.2% Triton X-100 in 100 mM Tris-HCl, 30 mM EDTA, pH 8.4. The plates were read for fluorescence (Excitation/Emission=540 nm/590 nm) using an EnVision plate reader after 60 mins of incubation at ambient temperature. Note that, in Table 5, the “Compound No” corresponds to the compound numbers in Table 1.

mouse CD38 = target: T3, mouse CD38 (Mus musculus, UniProt P56528); assay: mouse recombinant CD38 enzyme assay (hydrolysis of NAD+); type: biochemical; conditions: read-out: mCD38 BioChem IC50
T3 sequence (P56528 1-304): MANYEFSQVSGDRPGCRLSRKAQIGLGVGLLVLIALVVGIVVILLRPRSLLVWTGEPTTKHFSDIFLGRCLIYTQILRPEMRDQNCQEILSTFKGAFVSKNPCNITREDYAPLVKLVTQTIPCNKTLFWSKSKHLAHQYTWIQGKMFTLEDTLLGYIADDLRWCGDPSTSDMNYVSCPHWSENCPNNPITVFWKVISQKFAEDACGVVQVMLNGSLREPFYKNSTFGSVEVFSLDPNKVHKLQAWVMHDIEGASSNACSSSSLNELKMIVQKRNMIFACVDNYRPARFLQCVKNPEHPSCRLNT
Procedure, shortened: as §1

SMILES	pIC50 (human CD38)	pIC50 [1]	pIC50 (mouse CD38)
COc1cc(C(=O)N[C@H]2CC[C@H](OC)CC2)nc(-c2cncn2C)n1 [Compound 128, 6-methoxy-N-((1r,4r)-4-methoxycyclohexyl)-2-(1-methyl-1H-imidazol-5-yl)pyrimidine-4-carboxamide]	8.05	6.03	9.00
O=C(Nc1ccncc1)c1cc(-n2ccnc2)ccn1 [Compound 7, 4-(1H-imidazol-1-yl)-N-(pyridin-4-yl)picolinamide]	6.26	5.35	6.65
Cn1cncc1-c1ccnc(C(=O)N[C@H]2CC[C@H](OCc3ccccc3)CC2)n1 [Compound 312, N-((1r,4r)-4-(benzyloxy)cyclohexyl)-4-(1-methyl-1H-imidazol-5-yl)pyrimidine-2-carboxamide]	7.58	5.55	7.99
COCCO[C@H]1CC[C@H](NC(=O)c2nc(-n3ccnc3)ccc2F)CC1 [Compound 43, 3-fluoro-6-(1H-imidazol-1-yl)-N-(4-(2-methoxyethoxy)cyclohexyl)picolinamide]	6.70	5.13	7.49
Cn1cncc1-c1nc(C(=O)NC2CCC(F)(F)CC2)cc(C2CCOCC2)n1 [Compound 200, N-(4,4-difluorocyclohexyl)-2-(1-methyl-1H-imidazol-5-yl)-6-(tetrahydro-2H-pyran-4-yl)pyrimidine-4-carboxamide]	8.03	5.64	8.72
O=C(NC1CC2(C1)CC(F)(F)C2)c1ccnc(-n2ccnc2)n1 [Compound 78, N-(6,6-difluorospiro[3.3]heptan-2-yl)-2-(1H-imidazol-1-yl)pyrimidine-4-carboxamide]	7.10	5.95	7.80
O=C(NC1CCC(F)(F)CC1)c1cc(C2CCOCC2)nc(-n2ccnc2)n1 [Compound 194, N-(4,4-difluorocyclohexyl)-2-(1H-imidazol-1-yl)-6-(tetrahydro-2H-pyran-4-yl)pyrimidine-4-carboxamide]	6.95	5.15	7.20
CO[C@H]1CC[C@H](NC(=O)c2nc(C)cc(-n3ccnc3)n2)CC1 [Compound 207, 4-(1H-imidazol-1-yl)-N-((1r,4r)-4-methoxycyclohexyl)-6-methylpyrimidine-2-carboxamide]	7.61	5.43	8.14
O=C(N[C@H]1CC[C@H](C(F)(F)F)CC1)c1ccnc(-n2ccnc2)n1 [Compound 79, 2-(1H-imidazol-1-yl)-N-((1r,4r)-4-(trifluoromethyl)cyclohexyl)pyrimidine-4-carboxamide]	7.68	5.63	7.92
COc1ccc([C@H]2C[C@H](NC(=O)c3nccc(-n4ccnc4)n3)C2)cc1 [Compound 217, 4-(1H-imidazol-1-yl)-N-((1r,3r)-3-(4-methoxyphenyl)cyclobutyl)pyrimidine-2-carboxamide]	7.44	5.71	7.71
O=C(N[C@H]1CC[C@H](O)CC1)c1nccc(-n2ccnc2)n1 [Compound 257, N-((1r,4r)-4-hydroxycyclohexyl)-4-(1H-imidazol-1-yl)pyrimidine-2-carboxamide]	6.91	5.34	7.36
CO[C@H]1CC[C@H](NC(=O)c2nc(-c3cncn3C)cnc2N)CC1 [Compound 318, 3-amino-N-((1r,4r)-4-methoxycyclohexyl)-6-(1-methyl-1H-imidazol-5-yl)pyrazine-2-carboxamide]	7.73	5.72	7.87
Cn1cncc1-c1cncc(C(=O)N[C@H]2CC[C@H](C)CC2)n1 [Compound 104, 6-(1-methyl-1H-imidazol-5-yl)-N-((1r,4r)-4-methylcyclohexyl)pyrazine-2-carboxamide]	7.62	5.87	8.00
Cn1cncc1-c1nc(C(=O)Nc2ccc(C(F)F)nc2)cc(C2CCOCC2)n1 [Compound 197, N-(6-(difluoromethyl)pyridin-3-yl)-2-(1-methyl-1H-imidazol-5-yl)-6-(tetrahydro-2H-pyran-4-yl)pyrimidine-4-carboxamide]	8.35	6.15	9.00
CC(=O)N1CCC(NC(=O)c2cccc(-n3ccnc3)n2)CC1 [Compound 44, N-(1-acetylpiperidin-4-yl)-6-(1H-imidazol-1-yl)picolinamide]	7.01	5.24	7.18
O=C(NC1CCN(c2ccccc2)CC1)c1nccc(-n2ccnc2)n1 [Compound 263, 4-(1H-imidazol-1-yl)-N-(1-phenylpiperidin-4-yl)pyrimidine-2-carboxamide]	6.60	4.90	6.57
Cc1cc(C(=O)N[C@H]2CC[C@H](C(F)F)CC2)nc(-n2ccnc2)c1 [Compound 97, N-(4-(difluoromethyl)cyclohexyl)-6-(1H-imidazol-1-yl)-4-methylpicolinamide]	7.62	5.82	8.52
Cc1cccc(NC(=O)c2cccc(-n3ccnc3)n2)n1 [Compound 33, 6-(1H-imidazol-1-yl)-N-(6-methylpyridin-2-yl)picolinamide]	6.50	4.86	6.64
Cn1cncc1-c1nc(C(=O)N[C@H]2CC[C@H](O)CC2)cc(C2CCC(F)(F)CC2)n1 [Compound 288, 6-(4,4-difluorocyclohexyl)-N-((1r,4r)-4-hydroxycyclohexyl)-2-(1-methyl-1H-imidazol-5-yl)pyrimidine-4-carboxamide]	7.99	5.59	9.00
O=C(NC12CC(O)(C1)C2)c1cccc(-n2ccnc2)n1 [Compound 15, N-(3-hydroxybicyclo[1.1.1]pentan-1-yl)-6-(1H-imidazol-1-yl)picolinamide]	5.94	5.00	6.13
Cn1cncc1-c1nccc(C(=O)Nc2ccc(C(F)F)nc2)n1 [Compound 94, N-(6-(difluoromethyl)pyridin-3-yl)-2-(1-methyl-1H-imidazol-5-yl)pyrimidine-4-carboxamide]	8.70	6.62	8.70
COc1cc(C(=O)N[C@H]2CC[C@H](C)CC2)nc(-n2ccnc2)c1 [Compound 166, 6-(1H-imidazol-1-yl)-4-methoxy-N-((1r,4r)-4-methylcyclohexyl)picolinamide]	7.68	5.65	8.70
Cn1cncc1-c1nc(C(=O)NC2CC3(COC3)C2)cc(C2CCC(F)(F)CC2)n1 [Compound 286, 6-(4,4-difluorocyclohexyl)-2-(1-methyl-1H-imidazol-5-yl)-N-(2-oxaspiro[3.3]heptan-6-yl)pyrimidine-4-carboxamide]	8.09	5.43	8.92
Cn1cncc1-c1ccnc(C(=O)N[C@H]2C[C@H](c3ccccc3F)C2)n1 [Compound 240, N-((1r,3r)-3-(2-fluorophenyl)cyclobutyl)-4-(1-methyl-1H-imidazol-5-yl)pyrimidine-2-carboxamide]	7.55	5.69	7.88
O=C(Nc1cccnc1)c1cc(C(F)(F)F)cc(-n2ccnc2)n1 [Compound 40, 6-(1H-imidazol-1-yl)-N-(pyridin-3-yl)-4-(trifluoromethyl)picolinamide]	8.22	6.02	8.70
O=C(Nc1ccc(F)cc1)c1cccc(-n2ccnc2)n1 [Compound 19, N-(4-fluorophenyl)-6-(1H-imidazol-1-yl)picolinamide]	8.15	6.46	8.05
Cn1cncc1-c1ccnc(C(=O)N[C@H]2CC[C@H](OC(F)F)CC2)n1 [Compound 275, N-((1r,4r)-4-(difluoromethoxy)cyclohexyl)-4-(1-methyl-1H-imidazol-5-yl)pyrimidine-2-carboxamide]	7.50	5.66	7.81
